This assay deals with T1, human mGlu2 receptor (Homo sapiens, UniProt Q14416).
T1 construct: expressed in transfected cells; host or cells: HEK293
Description: FLIPR intracellular Ca2+ assay, potentiation of glutamate response in HEK293 clone expressing mGlu2 receptor, rGLAST and Galpha16. The format is cell-based. Particulars: 1 μM glutamate added ten minutes after test compound, HEK293 cells with human mGlu2, rGLAST, Galpha16, read-out: EC50 values of potentiation effect to glutamate. The gist of the method: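 HEK293 cells stably expressing human mGlu2, rat GLAST and Gα16 were loaded with 2 µM Fluo-4 AM and intracellular Ca2+ read by FLIPR. Compound added alone (agonism), then with submaximal glutamate (e.g. 1 µM; potentiation). Background-subtracted peaks normalized to 100 µM glutamate response; EC50 from four-parameter fit.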

T1 sequence (Q14416 19-872): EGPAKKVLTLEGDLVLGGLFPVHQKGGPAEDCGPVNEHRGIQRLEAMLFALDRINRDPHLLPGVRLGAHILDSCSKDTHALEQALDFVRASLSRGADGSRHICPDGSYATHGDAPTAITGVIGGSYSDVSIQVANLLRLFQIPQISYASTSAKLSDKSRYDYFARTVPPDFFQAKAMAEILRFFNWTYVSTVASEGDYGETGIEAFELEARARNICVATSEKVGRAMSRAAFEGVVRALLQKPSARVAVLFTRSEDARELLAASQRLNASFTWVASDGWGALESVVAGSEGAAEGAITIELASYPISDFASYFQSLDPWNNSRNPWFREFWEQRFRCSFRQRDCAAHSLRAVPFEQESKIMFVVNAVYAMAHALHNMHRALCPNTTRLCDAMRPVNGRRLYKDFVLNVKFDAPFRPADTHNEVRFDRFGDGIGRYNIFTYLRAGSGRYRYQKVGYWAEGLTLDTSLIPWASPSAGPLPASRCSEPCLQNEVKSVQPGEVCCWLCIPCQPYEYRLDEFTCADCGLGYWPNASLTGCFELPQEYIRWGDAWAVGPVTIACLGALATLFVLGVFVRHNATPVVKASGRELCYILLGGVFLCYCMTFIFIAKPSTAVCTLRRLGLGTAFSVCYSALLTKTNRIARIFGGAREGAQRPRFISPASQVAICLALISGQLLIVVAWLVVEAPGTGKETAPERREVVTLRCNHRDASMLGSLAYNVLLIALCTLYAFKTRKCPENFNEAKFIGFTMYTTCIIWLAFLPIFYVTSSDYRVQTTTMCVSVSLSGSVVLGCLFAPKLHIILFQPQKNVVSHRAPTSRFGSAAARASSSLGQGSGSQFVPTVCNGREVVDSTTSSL

With `CCCN1Cc2cc(NCc3c[nH]nc3-c3ccc(Cl)cc3)ccc2C1=O` [Example 576, 5-{[3-(4-Chloro-phenyl)-1H-pyrazol-4-ylmethyl]-amino}-2-propyl-2,3-dihydro-isoindol-1-one], the EC50 was below 1000 nM.
As for `CCCC(=O)c1ccc(OCc2c[nH]nc2-c2ccccc2)cc1` [Example 499, 1-[4-(3-Phenyl-1H-pyrazol-4-ylmethoxy)-phenyl]-butan-1-one], the figure is below 1000 nM; as for `Cc1cc(=O)c2ccc(NCc3c[nH]nc3-c3ccc(C(F)(F)F)cc3)cc2o1` [Example 400, 2-Methyl-7-{[3-(4-trifluoromethyl-phenyl)-1H-pyrazol-4-ylmethyl]-amino}-chromen-4-one], 1000 to 10000 nM.
As for `CCC(C)Oc1cccc(NCc2c[nH]nc2-c2ccc(C(F)(F)F)cc2)c1` (centres unmarked) [Example 378, (3-sec-Butoxy-phenyl)-[3-(4-trifluoromethyl-phenyl)-1H-pyrazol-4-ylmethyl]-amine], the figure is 1000 to 10000 nM.
In the case of `COc1ccc(NCc2c[nH]nc2-c2ccc(C(F)(F)F)cc2)c(OC)n1` [Example 351, (2,6-Dimethoxy-pyridin-3-yl)-[3-(4-trifluoromethyl-phenyl)-1H-pyrazol-4-ylmethyl]-amine] it was 1000 to 10000 nM; in that of `CCCC(=O)c1ccc(NCc2c[nH]nc2-c2ccc(C(F)(F)F)cc2)cc1` [Example 42], below 1000 nM; in that of `CCCCC(=O)c1ccc(OCc2c[nH]nc2-c2ccc(C(F)(F)F)cc2)cc1` [Example 490, 1-{4-[3-(4-Trifluoromethyl-phenyl)-1H-pyrazol-4-ylmethoxy]-phenyl}-pentan-1-one], below 1000 nM.
As to `CCCC(=O)c1ccc(NCc2c(C)nn(C)c2C)cc1` [Example 211, 1-{4-[(1,3,5-Trimethyl-1H-pyrazol-4-ylmethyl)-amino]-phenyl}-butan-1-one], the EC50 was 1000 to 10000 nM.
With `CCCC(=O)c1ccc(OCCCCOc2cccnc2)cc1` [Example 423, 1-{4-[4-(Pyridin-3-yloxy)-butoxy]-phenyl}-butan-1-one], the EC50 was 1000 to 10000 nM.
As for `CCCC(=O)c1ccc(NCc2cnn(Cc3ccccc3)c2)cc1` [Example 220, 1-{4-[(1-Benzyl-1H-pyrazol-4-ylmethyl)-amino]-phenyl}-butan-1-one], the EC50 fell in the range of 1000 to 10000 nM.
On to `CCCC(=O)c1ccc(NCc2ccc(N3CCCCC3)nc2)cc1` [Example 312, 1-{4-[(3,4,5,6-Tetrahydro-2H-[1,2′]bipyridinyl-5′-ylmethyl)-amino]-phenyl}-butan-1-one], for which the EC50 is 1000 to 10000 nM.
As for `O=C1c2ccc(OCc3c[nH]nc3-c3ccccc3)cc2CN1CC(F)F` [Example 567, 2-(2,2-Difluoro-ethyl)-5-(3-phenyl-1H-pyrazol-4-ylmethoxy)-2,3-dihydro-isoindol-1-one], the figure is below 1000 nM; as for `CCCC(C)Oc1cccc(N(Cc2c[nH]nc2-c2ccc(C(F)(F)F)cc2)S(=O)(=O)CC(F)(F)F)c1` (centres unmarked) [Example 455, 2,2,2-Trifluoro-ethanesulfonic acid [3-(1-methyl-butoxy)-phenyl]-[3-(4-trifluoromethyl-phenyl)-1H-pyrazol-4-ylmethyl]-amide], 1000 to 10000 nM; as for `CCCC(=O)c1ccc(NCc2ccc(OC3CCCC3)nc2)cc1` [Example 313, 1-{4-[(6-Cyclopentyloxy-pyridin-3-ylmethyl)-amino]-phenyl}-butan-1-one], 1000 to 10000 nM.
Regarding `CCN1Cc2cc(OCc3c[nH]nc3-c3ccc(F)cc3)ccc2C1=O` [Example 559, 2-Ethyl-5-[3-(4-fluorophenyl)-1H-pyrazol-4-ylmethoxy]-2,3-dihydro-isoindol-1-one], the EC50 is below 1000 nM.
As for `COc1cc(NCc2c[nH]nc2C(C)(C)C)cc(OC)c1` [Example 116, (3-tert-Butyl-1H-pyrazol-4-ylmethyl)-(3,5-dimethoxyphenyl)-amine], the figure is 1000 to 10000 nM.
In the case of `CCCC(=O)c1ccc(NCc2cnn(-c3ccccc3)c2C)cc1` [Example 45, 1-{4-[(5-Methyl-1-phenyl-1H-pyrazol-4-ylmethyl)amino]phenyl}butan-1-one] it was 1000 to 10000 nM.
As for `CCCC(=O)c1ccc(OCc2n[nH]cc2-c2ccc(CC)cc2)cc1` [Example 521, 1-{4-[4-(4-Ethyl-phenyl)-1H-pyrazol-3-ylmethoxy]-phenyl}-butan-1-one], the EC50 is below 1000 nM.
In the case of `O=C1c2ccc(OCc3c[nH]nc3-c3ccccc3)cc2CN1CCC(F)(F)F` [Example 543, 5-(3-Phenyl-1H-pyrazol-4-ylmethoxy)-2-(3,3,3-trifluoro-propyl)-2,3-dihydro-isoindol-1-one] it was below 1000 nM; in that of `CCCc1c(NCc2c[nH]nc2-c2cccc(C(F)(F)F)c2)ccc(C(C)=O)c1O` [Example 436, 1-(2-Hydroxy-3-propyl-4-{[3-(3-trifluoromethyl-phenyl)-1H-pyrazol-4-ylmethyl]-amino}-phenyl)-ethanone], 1000 to 10000 nM; in that of `CCCC(=O)c1ccc(NCc2cnccc2-c2cccc(Br)c2)cc1` [Example 37, 1-(4-{[4-(3-Bromophenyl)pyridin-3-ylmethyl]amino}phenyl)butan-1-one], 1000 to 10000 nM.
As to `CCCC(=O)c1ccc(OCc2c[nH]nc2-c2ccc(Cl)cc2)cc1` [Example 496, 1-{4-[3-(4-Chloro-phenyl)-1H-pyrazol-4-ylmethoxy]-phenyl}-butan-1-one], the concentration for a half-maximal effect (EC50) was below 1000 nM.
In the case of `CCCC(=O)c1ccc(NCc2c[nH]cc2-c2ccccc2)cc1` [Example 523, 1-{4-[(4-Phenyl-1H-pyrrol-3-ylmethyl)-amino]-phenyl}-butan-1-one] it was 1000 to 10000 nM; in that of `CCCC(=O)c1ccc(NCc2n[nH]cc2-c2ccc(OC)cc2)cc1` [Example 513, 1-(4-{[4-(4-Methoxy-phenyl)-1H-pyrazol-3-ylmethyl]-amino}-phenyl)-butan-1-one], below 1000 nM.
In the case of `CCCC(=O)c1ccc(NCc2cnn(C)c2-c2ccc(C(F)(F)F)cc2)cc1` [Example 375, 1-(4-{[1-Methyl-5-(4-trifluoromethyl-phenyl)-1H-pyrazol-4-ylmethyl]-amino}-phenyl)-butan-1-one] it was below 1000 nM.
In the case of `CCCC(=O)c1ccc(NCc2n[nH]cc2-c2ccc(CC)cc2)cc1` [Example 516, 1-(4-{[4-(4-Ethyl-phenyl)-1H-pyrazol-3-ylmethyl]-amino}-phenyl)-butan-1-one] it was below 1000 nM; in that of `CCCC(=O)c1ccc(NCc2ccc(CC)s2)cc1` [Example 9, 1-{4-[(5-Ethylthiophen-2-ylmethyl)amino]phenyl}butan-1-one], 1000 to 10000 nM; in that of `CC(=O)c1sccc1NCc1c[nH]nc1-c1ccc(C(F)(F)F)cc1` [Example 355, 1-(3-{[3-(4-Trifluoromethyl-phenyl)-1H-pyrazol-4-ylmethyl]-amino}-thiophen-2-yl)-ethanone], 1000 to 10000 nM.
As to `CCCC(=O)c1ccc(NCc2csc(-c3ccccc3)n2)cc1` [Example 46, 1-{4-[(2-Phenylthiazol-4-ylmethyl)amino]phenyl}butan-1-one], the EC50 was 1000 to 10000 nM.
In the case of `COC(=O)c1ccc(NCc2c[nH]nc2-c2ccc(Cl)cc2)cc1` [Example 443, 4-{[3-(4-Chloro-phenyl)-1H-pyrazol-4-ylmethyl]-amino}-benzoic acid methyl ester] it was 1000 to 10000 nM; in that of `O=C1c2ccc(OCc3c[nH]nc3-c3cccc(C(F)(F)F)c3)cc2CN1CCC(F)(F)F` [Example 538, 5-[3-(3-Trifluoromethyl-phenyl)-1H-pyrazol-4-ylmethoxy]-2-(3,3,3-trifluoro-propyl)-2,3-dihydro-isoindol-1-one], below 1000 nM.
As to `CCCC(=O)c1ccc(NCc2c(-c3ccccc3)noc2C)cc1` [Example 43, 1-{4-[(5-Methyl-3-phenylisoxazol-4-ylmethyl)amino]phenyl}butan-1-one], the EC50 was in the range of 1000 to 10000 nM.
Take `CCCC(=O)c1ccc(NCc2c[nH]nc2CCC)cc1` [Example 476, 1-{4-[(3-Propyl-1H-pyrazol-4-ylmethyl)-amino]-phenyl}-butan-1-one]: the EC50 was in the range of 1000 to 10000 nM.
As for `CCCC(=O)c1ccc(N(Cc2ccc(N(C)C)nc2)S(=O)(=O)CC(F)(F)F)cc1` [Example 391, 2,2,2-Trifluoro-ethanesulfonic acid (4-butyryl-phenyl)-(6-dimethylamino-pyridin-3-ylmethyl)-amide], the figure is 1000 to 10000 nM.
Regarding `CCCC(=O)c1ccc(NCc2c[nH]nc2-c2cccc(C(F)(F)F)c2)cc1` [Example 416, 1-(4-{[3-(3-Trifluoromethyl-phenyl)-1H-pyrazol-4-ylmethyl]-amino}-phenyl)-butan-1-one], the EC50 lay within 1000 to 10000 nM.
For the compound `CN1CCC(Oc2ccc(NCc3c[nH]nc3C(C)(C)C)cc2)CC1` [Example 284, (3-tert-Butyl-1H-pyrazol-4-ylmethyl)-[4-(1-methyl-piperidin-4-yloxy)-phenyl]-amine], the EC50 is 1000 to 10000 nM.
For `CCCC(=O)c1ccc(NCc2c[nH]nc2CC)cc1` [Example 478, 1-{4-[(3-Ethyl-1H-pyrazol-4-ylmethyl)-amino]-phenyl}-butan-1-one], the EC50 lay within 1000 to 10000 nM.
As for `CCCC(=O)c1ccc(NCc2ccc3ncccc3c2)cc1` [Example 25, 1-{4-[(Quinolin-6-ylmethyl)amino]phenyl}butan-1-one], the figure is 1000 to 10000 nM; as for `CCCC(=O)c1ccc(NCc2n[nH]cc2-c2ccc(Cl)cc2)cc1` [Example 518, 1-(4-{[4-(4-Chloro-phenyl)-1H-pyrazol-3-ylmethyl]-amino}-phenyl)-butan-1-one], 1000 to 10000 nM.
As to `CCCC(=O)c1ccc(NCc2ccnn2C)cc1` [Example 216, 1-{4-[(2-Methyl-2H-pyrazol-3-ylmethyl)-amino]-phenyl}-butan-1-one], the EC50 lay in the range of 1000 to 10000 nM.
As for `CCCC(=O)c1cccc(N(Cc2cccnc2)S(=O)(=O)CC(F)(F)F)c1` [Example 390, 2,2,2-Trifluoro-ethanesulfonic acid (3-butyryl-phenyl)-pyridin-3-ylmethyl-amide], the figure is below 1000 nM.

By EC50 is commonly meant the concentration giving half of the maximal effect.

Values taken from patent US9242933B2 (AbbVie Deutschland GmbH & Co. KG, priority 2007, dated 2016).
